Measurements as given in patent publication US5191079A, “Quinolinecarboxylic acid derivatives” (priority 1990, dated 1993).
≈ marks a conversion by molar mass, not a printed value. Where a name gives a salt, the structure may show the parent alone. Read-outs that look alike come from different tables or passages of the source.

Key:
[1] = test system: clinically isolated Staphylococcus aureus; test: In vitro antibacterial activity against clinical isolates, Experiment 2; format: cell-based
How it was run: (§1)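 MIC was determined on sensitivity test agar after preculture of each clinical isolate in sensitivity test broth. Test compounds were prepared as 1000 μg/ml standard (stock) solutions in sterilized distilled water. Isolates were collected between Nov. 1988 and Jun. 1989.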

[2] = test system: clinically isolated Enterococcus faecium; test: as above; format: cell-based
How it was run: as §1

[3] = test system: clinically isolated Enterococcus faecalis; test: as above; format: cell-based
How it was run: as §1

[4] = test system: Staphylococcus epidermidis IAM 1296; test: MIC, Experiment 1; format: cell-based; conditions: IAM1296, S. epidermidis IAM 1296, Gram +, read-out: Min. inhib. concentr. (MIC)
Experimental: The compounds of the present invention ([…] and Q) were each dissolved in dimethylsulfoxide to prepare a solution of 5000 μg/ml in concentration. The compounds of the present invention (I, J and K) and the known compound (Y) were each dissolved in sterilized distilled water to prepare a solution of 5000 μg/ml in concentration. […] The test was carried out by a method as appointed by Japan Society of Chemotherapy [cf. Chemotherapy, 29, 76-79 (1981), TOKYO]. As to Streptococcus pneumoniae and Streptococcus pyogenes, Brain heart infusion broth (manufactured by DIFCO) was used as the medium for the preculture thereof, and a heart infusion agar medium containing 5% defibrinated horse blood (manufactured by Nissui Seiyaku K. K., Japan) was used as the medium for the measurement of minimum inhibitory concentration (MIC). As to other microorganisms, a sensitivity test broth (manufactured by Nissui Seiyaku K. K.) was used as the medium for the preculture thereof, and a sensitivity test agar medium (manufactured by Nissui Seiyaku K. K.) was used as the medium for the measurement of MIC.

[5] = test system: Staphylococcus aureus IID 803; test: Effect on treatment of general infectious disease (systemic infection in mice), Experiment 3; format: in vivo, Staphylococcus aureus; ddY male mice; conditions: for ED50: Staphylococcus aureus, IID803, 168 h, oral, 1 h after i.p. infection, mice, survival after one week, average of several tests, read-out: 50% effective dose (ED50); for protective effects against infection: Experiment 3, in words
Experimental: Staphylococcus aureus IID 803
The test microorganism was subjected to standing culture in Brain heart infusion broth (manufactured by DIFCO) at 37° C. for 16 to 18 hours. The culture was then diluted with PBS (Dulbecco's phosphate buffered saline) to adjust the concentration of bacteria to 4×10^7 -8×10^7 CFU/ml. The mixture was mixed with an equivalent amount of 10% (w/v) Mucin (BACTO MUCIN BACTERIOLOGICAL, manufactured by Difco Co.) to prepare a bacterial suspension. The thus prepared bacterial suspension (0.5 ml each) was intraperitoneally inoculated to ddY male mice (5 weeks age, weighing 24-27 g, 5 mice in each group), to infect the animals, by which systemic infectious model was prepared.
The mice were daily observed for one week, and from the survival number of mice after one week, the 50% effective dose (ED50) was calculated by Weil method. This test was repeated several times and the average of ED50 was calculated.

[6] = 25 clinical strains S. aureus incl. 16 methicillin resistant
[7] = 25 clinical strains S. aureus incl. 16 methicillin resistant, 50% of strains, read-out: MIC50
[8] = 25 clinical strains S. aureus incl. 16 methicillin resistant, 90% of strains, read-out: MIC90
[9] = 25 clinical strains E. faecium, 90% of strains, read-out: MIC90
[10] = 25 clinical strains E. faecalis
[11] = 25 clinical strains E. faecalis, 90% of strains, read-out: MIC90
[12] = 25 clinical strains E. faecalis, 50% of strains, read-out: MIC50

SMILES	MIC [1, 6] [µg/mL]	MIC50 [1, 7] [µg/mL]	MIC90 [1, 8] [µg/mL]	MIC50 [2] [µg/mL]	MIC ([2]; 25 clinical strains E. faecium) [µg/mL]	MIC90 [2, 9] [µg/mL]	MIC50 [3] [µg/mL]	MIC [3, 10] [µg/mL]	MIC90 [3, 11] [µg/mL]	MIC [4] [µg/mL]	MIC50 [3, 12] [µg/mL]	MIC90 [3] [µg/mL]	ED50 [5] [mg/kg]	protective effects against infection [5]	MIC90 [1] [µg/mL]	MIC90 [2] [µg/mL]	MIC50 [1] [µg/mL]
CN1Cc2csc3c(C(=O)O)c(=O)c4cc(F)c(N5CCC(N(C)C)CC5)c1c4n23 [Compound (H), 9,1-(methylimino)methano-7-fluoro-8-(4-dimethylaminopiperidino)-5-oxo-5H-thiazolo[3,2-a]quinoline-4-carboxylic acid]	0.05 to 3.13 (≈ 0.116 to 7.27 µM)	0.1 (≈ 0.232 µM)	3.13 (≈ 7.27 µM)	1.56 (≈ 3.62 µM)	0.2 to 25 (≈ 0.465 to 58.1 µM)	12.5 (≈ 29 µM)	0.39 (≈ 0.906 µM)	0.2 to 6.25 (≈ 0.465 to 14.5 µM)	3.13 (≈ 7.27 µM)	0.2 (≈ 0.465 µM)	–	–	–	–	–	–	–
CN1Cc2csc3c(C(=O)O)c(=O)c4cc(F)c(N5CCC(O)CC5)c1c4n23 [Compound (L), 9,1-(Methylimino)methano-7-fluoro-8-(4-hydroxypiperidino)-5-oxo-5H-thiazolo[3,2-a]quinoline-4-carboxylic acid]	0.006 to 0.39 (≈ 0.0149 to 0.967 µM)	≤ 0.006	0.39 (≈ 0.967 µM)	0.39 (≈ 0.967 µM)	0.05 to 6.25 (≈ 0.124 to 15.5 µM)	3.13 (≈ 7.76 µM)	–	0.05 to 1.56 (≈ 0.124 to 3.87 µM)	1.56 (≈ 3.87 µM)	0.013 (≈ 0.0322 µM)	0.05 (≈ 0.124 µM)	–	–	–	–	–	–
CN1Cc2csc3c(C(=O)O)c(=O)c4cc(F)c(N5CCN(C)C(CF)C5)c1c4n23 (stereo not shown) [Compound (K), 9,1-(methylimino)methano-7-fluoro-8-(3-fluoromethyl-4-methyl-1-piperazinyl)-5-oxo-5H-thiazolo[3,2-a]quinoline-4-carboxylic acid hydrochloride]	0.025 to 1.56	0.05	1.56	1.56	0.2 to 12.5	12.5	0.39	0.2 to 6.25	–	0.1	–	6.25	–	–	–	–	–
CN1CCN(c2c(F)cc3c(=O)c(C(=O)O)c4scc5n4c3c2OC5)CC1 [Compound (Y), 9,1-Epoxymethano-7-fluoro-8-(4-methyl-1-piperazinyl)-5-oxo-5H-thiazolo[3,2-a]quinoline-4-carboxylic acid hydrochloride, reference compound]	0.05 to 12.5	0.2	12.5	3.13	0.39 to 12.5	6.52	0.39	0.2 to 6.25	–	0.39	–	6.25	10.8	–	–	–	–
COCC1CN(c2c(F)cc3c(=O)c(C(=O)O)c4scc5n4c3c2N(C)C5)CCN1C (stereo not shown) [Compound (J), 9,1-(Methylimino)methano-7-fluoro-8-(3-methoxymethyl-4-methyl-1-piperazinyl)-5-oxo-5H-thiazolo[3,2-a]quinoline-4-carboxylic acid hydrochloride]	0.05 to 6.25	0.1	3.13	3.13	0.39 to 25	12.5	0.39	0.2 to 12.5	12.5	0.2	–	–	4.4	excellent protective effects against infection	–	–	–
COC[C@@H]1CN(c2c(F)cc3c(=O)c(C(=O)O)c4scc5n4c3c2N(C)C5)CCO1 [Compound (O), 9,1-(Methylimino)methano-7-fluoro-8-[(2S)-2-methoxymethylmorpholino)-5-oxo-5H-thiazolo[3,2-a]quinoline-4-carboxylic acid]	0.006 to 0.78 (≈ 0.0138 to 1.8 µM)	0.013 (≈ 0.03 µM)	–	3.13 (≈ 7.22 µM)	0.1 to 12.5 (≈ 0.231 to 28.8 µM)	–	–	0.05 to 3.13 (≈ 0.115 to 7.22 µM)	3.13 (≈ 7.22 µM)	0.05 (≈ 0.115 µM)	0.2 (≈ 0.461 µM)	–	–	–	0.78 (≈ 1.8 µM)	6.25 (≈ 14.4 µM)	–
CN1Cc2csc3c(C(=O)O)c(=O)c4cc(F)c(N5CCN(C)C(CO)C5)c1c4n23 (stereo not shown) [Compound (I), 9,1-(Methylimino)methano-7-fluoro-8-(3-hydroxymethyl-4-methyl-1-piperazinyl)-5-oxo-5H-thiazolo-[3,2-a]quinoline-4-carboxylic acid hydrochloride]	0.1 to 12.5	0.2	–	3.13	0.2 to 25	12.5	0.39	0.2 to 12.5	12.5	0.2	–	–	–	–	6.25	–	–
CN1Cc2csc3c(C(=O)O)c(=O)c4cc(F)c(N5CCO[C@H](CO)C5)c1c4n23 [Compound (M), 9,1-(Methylimino)methano-7-fluoro-8-[ (2S)-2-hydroxymethylmorpholino]-5-oxo-5H-thiazolo[3,2-a]quinoline-4-carboxylic acid]	0.006 to 0.78 (≈ 0.0143 to 1.86 µM)	0.013 (≈ 0.031 µM)	–	1.56 (≈ 3.72 µM)	0.1 to 25 (≈ 0.238 to 59.6 µM)	3.13 (≈ 7.46 µM)	–	0.05 to 3.13 (≈ 0.119 to 7.46 µM)	3.13 (≈ 7.46 µM)	0.05 (≈ 0.119 µM)	0.2 (≈ 0.477 µM)	–	–	–	0.78 (≈ 1.86 µM)	–	–
COC[C@H]1CN(c2c(F)cc3c(=O)c(C(=O)O)c4scc5n4c3c2N(C)C5)CCO1 [Compound (P), 9,1-(Methylimino)methano-7-fluoro-8-[(2R)-2-methoxymethylmorpholino)-5-oxo-5H-thiazolo[3,2-a]quinoline-4-carboxylic acid]	0.006 to 0.78 (≈ 0.0138 to 1.8 µM)	0.013 (≈ 0.03 µM)	–	3.13 (≈ 7.22 µM)	0.2 to 12.5 (≈ 0.461 to 28.8 µM)	12.5 (≈ 28.8 µM)	–	0.1 to 6.25 (≈ 0.231 to 14.4 µM)	–	0.05 (≈ 0.115 µM)	0.2 (≈ 0.461 µM)	6.25 (≈ 14.4 µM)	–	–	0.78 (≈ 1.8 µM)	–	–
CN1Cc2csc3c(C(=O)O)c(=O)c4cc(F)c(N5CCO[C@@H](CO)C5)c1c4n23 [Compound (N), 9,1-(Methylimino)methano-7-fluoro-8-[(2R)-2-hydroxymethylmorpholino]-5-oxo-5H-thiazolo[3,2-a]quinoline-4-caboxylic acid]	0.006 to 0.78 (≈ 0.0143 to 1.86 µM)	0.013 (≈ 0.031 µM)	–	1.56 (≈ 3.72 µM)	0.1 to 25 (≈ 0.238 to 59.6 µM)	–	–	0.05 to 3.13 (≈ 0.119 to 7.46 µM)	3.13 (≈ 7.46 µM)	0.05 (≈ 0.119 µM)	0.2 (≈ 0.477 µM)	–	–	–	0.78 (≈ 1.86 µM)	6.25 (≈ 14.9 µM)	–
CN1Cc2csc3c(C(=O)O)c(=O)c4cc(F)c(N5CCOC(CCl)C5)c1c4n23 (stereo not shown) [Compound (D), 9,1-(Methylimino)methano-7-fluoro-8-(2-chloromethylmorpholino)-5-oxo-5H-thiazolo[3,2-a]quinoline-4-carboxylic acid]	0.006 to 0.2 (≈ 0.0137 to 0.457 µM)	0.013 (≈ 0.0297 µM)	0.2 (≈ 0.457 µM)	0.39 (≈ 0.891 µM)	0.05 to 3.13 (≈ 0.114 to 7.15 µM)	3.13 (≈ 7.15 µM)	–	0.05 to 3.13 (≈ 0.114 to 7.15 µM)	1.56 (≈ 3.56 µM)	0.025 (≈ 0.0571 µM)	0.2 (≈ 0.457 µM)	–	–	–	–	–	–
CCOCC1CN(c2c(F)cc3c(=O)c(C(=O)O)c4scc5n4c3c2N(C)C5)CCO1 (stereo not shown) [Compound (Q), 9,1-(Methylimino)methano-7-fluoro-8-(2-ethoxymethylmorpholino)-5-oxo-5H-thiazolo[3,2-a]quinoline-4-carboxylic acid]	0.006 to 0.78 (≈ 0.0134 to 1.74 µM)	0.013 (≈ 0.0291 µM)	–	3.13 (≈ 6.99 µM)	0.2 to 25 (≈ 0.447 to 55.9 µM)	12.5 (≈ 27.9 µM)	0.39 (≈ 0.872 µM)	0.05 to 6.25 (≈ 0.112 to 14 µM)	–	0.1 (≈ 0.223 µM)	–	6.25 (≈ 14 µM)	–	–	0.78 (≈ 1.74 µM)	–	–
CN1Cc2csc3c(C(=O)O)c(=O)c4cc(F)c(N5CCN6CCOC[C@H]6C5)c1c4n23 [Compound (F), 9,1-(Methylimino)methano-7-fluoro-8-[(6R)-1,8-diaza-4-oxabicyclo[4.4.0]deca-8-yl]-5-oxo-5H-thiazolo[3,2-a]quinoline-4-carboxylic acid]	0.013 to 0.78 (≈ 0.0292 to 1.75 µM)	–	–	1.56 (≈ 3.51 µM)	0.2 to 6.25 (≈ 0.45 to 14.1 µM)	–	–	0.05 to 6.25 (≈ 0.112 to 14.1 µM)	–	0.05 (≈ 0.112 µM)	0.2 (≈ 0.45 µM)	6.25 (≈ 14.1 µM)	2.3	excellent protective effects against infection	0.78 (≈ 1.75 µM)	6.25 (≈ 14.1 µM)	0.025 (≈ 0.0562 µM)
CN1Cc2csc3c(C(=O)O)c(=O)c4cc(F)c(N5CCC(=O)CC5)c1c4n23 [Compound (G), 9,1-(Methylimino)methano-7-fluoro-8-(4-oxopiperidino)-5-oxo-5H-thiazolo[3,2-a]quinoline-4-carboxylic acid]	0.006 to 0.39 (≈ 0.0149 to 0.972 µM)	≤ 0.006	0.2 (≈ 0.498 µM)	0.39 (≈ 0.972 µM)	0.025 to 3.13 (≈ 0.0623 to 7.8 µM)	3.13 (≈ 7.8 µM)	–	0.025 to 1.56 (≈ 0.0623 to 3.89 µM)	1.56 (≈ 3.89 µM)	0.013 (≈ 0.0324 µM)	0.05 (≈ 0.125 µM)	–	–	–	–	–	–
